Data: US20210292680A1, “MULTIFUNCTIONAL AROMATIC ALCOHOLS FOR PERSONAL CARE, HOME CARE AND INDUSTRIAL AND INSTITUTIONAL COMPOSITIONS” (EMERALD KALAMA CHEMICAL, LLC, priority 2018, published 2021)

How the values were obtained:
[1] = Shear ramp, aqueous solution (viscosity); type: physicochemical; settings: hand dish wash
Description: Shear Ramp aqueous solution: The 40 mm cone and plate geometry was used on an AR2000ex rheometer at 25° C. A gap of 29 μm was used. The shear was ramped from 0 s^−1 to 2000 s^−1 over six minutes. Shear rate is expressed in s^−1 or 1/s. Viscosity readings are expressed in Pa·s.
At 0.5 wt. %, the low shear viscosity increased roughly 36% over the control, while high shear viscosity increased roughly 43%. (Results not shown.)
R=4 Aromatic Alcohols. Similarly, viscosity modifying behavior is observed in a hand dish wash aqueous surfactant solution using an aromatic alcohol, where R=4 carbons (2-methyl-3-phenylpropanol). […] For 0.5 wt. % aromatic alcohol, the low shear viscosity increased 110% over the control, while high shear viscosity increased approximately 37%. At 1.0 wt. % aromatic alcohol, the viscosity profile changed, yielding increases in low and high shear viscosity of 56% and 94%, respectively.

[2] = Process defoaming evaluation (modified ASTM E2407-04); settings: 0.4 wt. % aromatic alcohol; 2.0 wt. % BioSoft N1-7 solution
Description: Defoaming evaluation: Process defoaming was tested using a modified ASTM method (E2407-04 (2015) Standard Test Method for Effectiveness of Defoaming Agents). 250 mL of a 2.0 wt. % surfactant solution was blended at the highest speed setting for 30 seconds, then let sit for 3 minutes. The initial foam height is measured, and then 0.4 wt. % defoamer is dropped onto the surface of the foam. The blender is turned on low speed and the solution is mixed for 1 minute. Foam height is re-measured after an additional five minutes of sitting.
Process defoaming was tested using a modified ASTM method (E2407-04 (2015) Standard Test Method for Effectiveness of Defoaming Agents) to assess surfactants and determine if there was a relationship between foam destabilization and surfactant type. Two different surfactant solutions were tested. 2.0 wt. % surfactant solutions were prepared as controls using BioSoft® N1-7 and SLES. Thereafter, 0.4 wt. % aromatic alcohols (R=3 and R=4) were added to each surfactant solution for comparison to the controls. After agitation to generate foam, the percent of initial foam volume loss was far less for the control (without aromatic alcohols).

[3] = Time to dissolve; type: physicochemical; settings: water with 1 wt. % aromatic alcohol
Description: Time to dissolve: Aromatic alcohol, 1% by weight, was added to deionized water to make 500 mL of solution. Stirring was started at 300 rpm. Test ingredient was added to both a 500 mL control deionized water and the 500 mL aromatic alcohol solution as a stopwatch timer was started. The timer was stopped when solution was completely clear and/or no particles of the test ingredient were visible in either sample. This is noted as the “dissolution time”, or time to dissolve. Aromatic alcohols can help solubilize hard-to-dissolve formulation ingredients more quickly and/or without the use of heat. The addition of 1.0 wt. % aromatic alcohol decreased the dissolution time of several common, hard-to-dissolve ingredients as shown in Table 1 below. Table 1 reflects the time to completely dissolve ingredients in water (Control) or water with 1 wt. % aromatic alcohol (R=3 denotes 3-phenylpropanol; R=4 denotes 2-methyl-3-phenylpropanol).

[4] = Shear ramp, oil-in-water emulsion (viscosity); type: physicochemical; settings: Vanicream skin lotion, concentrations up to 0.5 wt. % aromatic alcohol, 25° C
Description: Shear Ramp oil-in-water emulsion: A 25 mm parallel plate geometry was used on an AR2000ex rheometer at 25° C. A gap of 600 μm was used. The shear was ramped from 0 s^−1 to 100 s^−1 over one minute. Viscosity readings are expressed in Pa·s.
R=3 Aromatic Alcohol. An R=3 aromatic alcohol, i.e., 3-phenylpropanol, was tested in a commercial oil-in-water emulsion, i.e., Vanicream® skin lotion, at 0.1 wt. %, 0.25 wt. % and 0.5 wt. % addition and compared to a control (without aromatic alcohol). […] The low shear (at 10 s^−1) viscosity was increased 68% over the control, while high shear viscosity (at 70 s^−1) increased roughly 100% (FIG. 1). The increase in high and low shear viscosity achieved desirable rheological traits such as richness, creaminess, and enhanced texture and skin feel in this end use personal care product with the addition of the aromatic alcohol. This unexpected result allows personal care and home care formulators, among others, to reduce or eliminate use of separate rheology modifiers to manipulate the viscosity of the final product.

[5] = Final product foam stability (Blender Foam Volume/Drainage method); settings: 0.5 wt. % aromatic alcohol incorporated into products
Description: Final product foam stability was tested using Blender Foam Volume/Drainage method published by Henkel Corp. 1981.
In the foam loss evaluation above, foam destabilization occurred at the time of addition (with mixing) of the aromatic alcohol. Further testing was performed to determine if the foaming ability of final products would be negatively impacted if aromatic alcohols were added to the formulations during the production process. A variety of commercial products were selected for testing, and 0.5 wt. % of aromatic alcohol (R=3, 3-phenylpropanol) was added to each. […] Foam stability of these commercial products was not reduced by the addition of aromatic alcohol.

[6] = Formulation stability of general purpose cleaner on storage; type: physicochemical; settings: 0.5 wt. % aromatic alcohol; pH 7; 7 days at 22° C.
Text: Rapid and complete dissolution of raw materials into aqueous solutions can prevent problems with solution instability over time. For example, a general purpose cleaner containing sodium coco fatty alcohol sulfate and 0.1 wt. % of either hydroxyethyl cellulose or xanthan gum (Table 2) becomes unstable over time across a range of pH values.
Panel (b) of FIG. 10 compares a general purpose cleaner containing hydroxyethyl cellulose at pH 7 with (right side of panel) and without (left side of panel) the use of 0.5 wt. % aromatic alcohol, stored at room temperature for one week, then shaken to disperse precipitants. Panel (c) of FIG. 10 compares a general purpose cleaner containing xanthan gum at pH 5 with (right side of panel) and without (left side of panel) the use of 0.5 wt. % aromatic alcohol (right,) stored at room temperature for one week, then shaken to disperse precipitants.
Similar observations were made with formulations of a general purpose cleaner in the absence of hydroxyethyl cellulose or xanthan gum but containing sodium coco fatty alcohol sulfate surfactant (FIG. 11). FIG. 11 compares a sample of a general purpose cleaner at pH 7 with and without 0.5 wt. % aromatic alcohol (R=3, 3-phenylpropanol). […]

[7] = Coco fatty alcohol sulfate 2.0 wt. %

| high shear viscosity increase over the control ([1]; 0.5 wt. % aromatic alcohol) | low shear viscosity increase over the control ([1]; 0.5 wt. % aromatic alcohol) | high shear viscosity increase over the control ([1]; 1.0 wt. % aromatic alcohol) [%] | low shear viscosity increase over the control ([1]; 1.0 wt. % aromatic alcohol) [%] | foam destabilization (foam loss, % of initial foam volume) [2] | Time to Dissolve at 22° C. ([3]; 1,2-octanediol 1.0 wt. %) [min] | Time to Dissolve at 22° C. [3, 7] [min] | low shear viscosity increase over the control ([4]; at 10 s^-1) [%] | high shear viscosity increase over the control ([4]; at 70 s^-1) | foam stability of commercial products [5] | homogeneity of general purpose cleaner without hydroxyethyl cellulose or xanthan gum, containing coco fatty alcohol sulfate [6] | SMILES |
| --- | --- | --- | --- | --- | --- | --- | --- | --- | --- | --- | --- |
| approximately 37% | 110% | 94 | 56 | significantly destabilized foam | 7.8 | 3.5 |  |  |  |  | CC(CO)Cc1ccccc1 (stereo not shown) [2-methyl-3-phenylpropanol] |
| roughly 43% | roughly 36% |  |  | significantly destabilized foam | 8.1 | 4.0 | 68 | roughly 100% | not reduced | remained homogeneous | OCCCc1ccccc1 [3-phenylpropanol] |
